Results reported in patent publication US20250179061A1 (SIRONAX LTD., priority 2022, published 2025).
Where two headings read alike, the source gives them in different places.

Test system: HT-29 cells
Assay: HT-29 necroptosis cell viability assay (TNF-α/SMAC mimetic/zVAD-FMK, CellTiter-Glo)
Type: cell-based
Settings: Homo sapiens
Procedure, shortened: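 Necroptosis was triggered by TNF-α (10 ng/ml), SMAC mimetic (6 μM) and zVAD-FMK (10 μM) in serum-free medium during 20 h compound exposure (10 concentrations, threefold steps) of HT-29 cells. IC50 from duplicate dose-responses uses CellTiter-Glo ATP luminescence as viability read-out.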

[1] = HT-29, HT-29 necroptosis cell viability, IC50 class symbols, read-out: Activity
[2] = HT-29, HT-29 necroptosis cell viability assay, class symbols for IC50, read-out: Activity
[3] = HT-29, HT-29 cells, necroptosis induced by TNF-α/SMAC mimetic/zVAD-FMK, CellTiter-Glo, read-out: Activity (IC50 class)

SMILES | IC50 [1] [nM] | IC50 [2] [nM] | further results
CCOC1CN(c2cc(Oc3ccc(-n4ncn(Cc5c(F)cccc5F)c4=O)cc3)ccn2)C1 [Example 336, 4-(2,6-difluorobenzyl)-2-(4-((2-(3-ethoxyazetidin-1-yl)pyridin-4-yl)oxy)phenyl)-2,4-dihydro-3H-1,2,4-triazol-3-one] | < 100 | – | –
Cc1nc(N)sc1Oc1ccc(-n2ncn(Cc3c(F)cccc3F)c2=O)cc1 [Example 91, 2-(4-((2-amino-4-methylthiazol-5-yl)oxy)phenyl)-4-(2,6-difluorobenzyl)-2,4-dihydro-3H-1,2,4-triazol-3-one] | – | – | IC50 (HT-29 cells stimulated with TNF-α (10 ng/ml), SMAC mimetic (6 μM) and zVAD-FMK (10 μM), 20 hours, CellTiter-Glo ATP luminescence, geometric mean IC50 from 10 points, read-out: Activity): < 100 nM
Cc1nc(C(=O)N2CC3(COC3)C2)sc1Oc1ccc(-n2ncn(Cc3ccccc3F)c2=O)cc1F [Example 605, 2-(3-fluoro-4-((4-methyl-2-(2-oxa-6-azaspiro[3.3]heptane-6-carbonyl)thiazol-5-yl)oxy)phenyl)-4-(2-fluorobenzyl)-2,4-dihydro-3H-1,2,4-triazol-3-one] | – | < 100 | –
Cc1nc(C(=O)NO)sc1Oc1ccc(-n2ncn(Cc3ccccc3F)c2=O)cc1F [Example 594, 5-(2-fluoro-4-(4-(2-fluorobenzyl)-5-oxo-4,5-dihydro-1H-1,2,4-triazol-1-yl)phenoxy)-N-hydroxy-4-methylthiazole-2-carboxamide] | – | 100 to 1000 | –
O=c1n(Cc2c(F)cccc2F)cnn1-c1ccc(Oc2ccnc(N3CCOCC3)c2)cc1 [Example 526, 4-(2,6-difluorobenzyl)-2-(4-((2-morpholinopyridin-4-yl)oxy)phenyl)-2,4-dihydro-3H-1,2,4-triazol-3-one] | – | 1000 to 10000 | –
C[C@H]1[C@@H](O)CN1c1cc(Oc2ncc(-n3ncn(Cc4c(F)cccc4F)c3=O)cc2F)ccn1 [Example 250, 4-(2,6-difluorobenzyl)-2-(5-fluoro-6-((2-((2S,3S)-3-hydroxy-2-methylazetidin-1-yl)pyridin-4-yl)oxy)pyridin-3-yl)-2,4-dihydro-3H-1,2,4-triazol-3-one] | < 100 | – | –
CN(c1cc(Oc2ccc(-n3ncn(Cc4c(F)cccc4F)c3=O)cc2)ccn1)C1CC(F)(F)C1 [Example 478, 4-(2,6-difluorobenzyl)-2-(4-((2-((3,3-difluorocyclobutyl)(methyl)amino)pyridin-4-yl)oxy)phenyl)-2,4-dihydro-3H-1,2,4-triazol-3-one] | 100 to 1000 | – | –
Cc1nc([C@@H](C)O)sc1Oc1ccc(-n2nc3n(c2=O)[C@H](c2ccccc2)CC3)cc1F (single isomer, unassigned) [Example 150] | – | < 100 | –
C[C@H]1C[C@@H](C#N)CN1c1cc(Oc2ccc(-n3ncn(Cc4c(F)cccc4F)c3=O)cc2)ccn1 [Example 282, (3R,5S)-1-(4-(4-(4-(2,6-difluorobenzyl)-5-oxo-4,5-dihydro-1H-1,2,4-triazol-1-yl)phenoxy)pyridin-2-yl)-5-methylpyrrolidine-3-carbonitrile] | < 100 | – | –
Cc1nc(C(N)=O)sc1Oc1ncc(-n2nc3n(c2=O)[C@@H](c2ccccc2)CC3)cc1Cl (single isomer, unassigned) [Example 641] | – | – | IC50 [3]: 1000 to 10000 nM
Cc1nc(C(N)=O)sc1Oc1ncc(-n2nc3n(c2=O)[C@H](c2ccccc2)CC3)cc1Cl (single isomer, unassigned) [Example 640] | – | – | IC50 [3]: < 100 nM
O=c1n(Cc2c(F)cccc2F)cnn1-c1ccc(Oc2ccnc(N3CC4(CCN4)C3)c2)cc1 [Example 315, 2-(4-((2-(1,6-diazaspiro[3.3]heptan-6-yl)pyridin-4-yl)oxy)phenyl)-4-(2,6-difluorobenzyl)-2,4-dihydro-3H-1,2,4-triazol-3-one] | < 100 | – | –
Cc1nc(N2CC(C)(NC(=O)OC(C)(C)C)C2)sc1C(=O)c1ccc(-n2ncn(Cc3c(F)cccc3F)c2=O)cc1 [Example 508, tert-butyl (1-(5-(4-(4-(2,6-difluorobenzyl)-5-oxo-4,5-dihydro-1H-1,2,4-triazol-1-yl)benzoyl)-4-methylthiazol-2-yl)-3-methylazetidin-3-yl)carbamate] | – | 100 to 1000 | –
Cc1nc(N2CC(C)(C#N)C2)cn1Cc1ccc(-n2ncn(Cc3c(F)cccc3F)c2=O)cc1 [Example 664, 1-(1-(4-(4-(2,6-difluorobenzyl)-5-oxo-4,5-dihydro-1H-1,2,4-triazol-1-yl)benzyl)-2-methyl-1H-imidazol-4-yl)-3-methylazetidine-3-carbonitrile] | – | – | IC50 [3]: 1000 to 10000 nM
Cc1c(C(C)(C)O)noc1Oc1ccc(-n2ncn(Cc3c(F)cccc3F)c2=O)cc1F [Example 472, 4-(2,6-difluorobenzyl)-2-(3-fluoro-4-((3-(2-hydroxypropan-2-yl)-4-methylisoxazol-5-yl)oxy)phenyl)-2,4-dihydro-3H-1,2,4-triazol-3-one] | 100 to 1000 | – | –
Cc1nc(C(=O)NCCN)sc1Oc1ccc(-n2ncn(Cc3ccccc3F)c2=O)cc1F [Example 148, N-(2-aminoethyl)-5-(2-fluoro-4-(4-(2-fluorobenzyl)-5-oxo-4,5-dihydro-1H-1,2,4-triazol-1-yl)phenoxy)-4-methylthiazole-2-carboxamide] | – | < 100 | –
N#CC12CC(Nc3cc(Oc4ccc(-n5ncn(Cc6c(F)cccc6F)c5=O)cc4F)c(Cl)cn3)(C1)C2 [Example 270, 3-((5-chloro-4-(4-(4-(2,6-difluorobenzyl)-5-oxo-4,5-dihydro-1H-1,2,4-triazol-1-yl)-2-fluorophenoxy)pyridin-2-yl)amino)bicyclo[1.1.1]pentane-1-carbonitrile] | < 100 | – | –
O=c1n(Cc2c(F)cccc2F)cnn1-c1ccc(Oc2ccnc(N3CC4(CCCOC4)C3)c2)cc1 [Example 335, 2-(4-((2-(6-oxa-2-azaspiro[3.5]nonan-2-yl)pyridin-4-yl)oxy)phenyl)-4-(2,6-difluorobenzyl)-2,4-dihydro-3H-1,2,4-triazol-3-one] | < 100 | – | –
COC(=O)c1nc(C)c(Oc2ncc(-n3ncn(Cc4c(F)cccc4F)c3=O)cc2F)s1 [Example 646, methyl 5-((5-(4-(2,6-difluorobenzyl)-5-oxo-4,5-dihydro-1H-1,2,4-triazol-1-yl)-3-fluoropyridin-2-yl)oxy)-4-methylthiazole-2-carboxylate] | – | – | IC50 [3]: < 100 nM
Cc1nc(C#N)sc1Oc1ccc(-n2ncn(Cc3cc(F)ccc3F)c2=O)cc1F [Example 572, 5-(4-(4-(2,5-difluorobenzyl)-5-oxo-4,5-dihydro-1H-1,2,4-triazol-1-yl)-2-fluorophenoxy)-4-methylthiazole-2-carbonitrile] | – | < 100 | –
CCOC(=O)c1c(C)c(C)nn1Cc1ccc(-n2ncn(Cc3c(F)cccc3F)c2=O)cc1F [Example 203, ethyl 1-(4-(4-(2,6-difluorobenzyl)-5-oxo-4,5-dihydro-1H-1,2,4-triazol-1-yl)-2-fluorobenzyl)-3,4-dimethyl-1H-pyrazole-5-carboxylate] | – | 100 to 1000 | –
N#CC1CC(n2cccc(Cc3ccc(-n4ncn(Cc5c(F)cccc5F)c4=O)cc3)c2=O)C1 (centres unmarked) [Example 682, 3-(3-(4-(4-(2,6-difluorobenzyl)-5-oxo-4,5-dihydro-1H-1,2,4-triazol-1-yl)benzyl)-2-oxopyridin-1(2H)-yl)cyclobutane-1-carbonitrile] | – | – | IC50 [3]: 100 to 1000 nM
C[C@H]1CCCN1c1cc(Oc2ccc(-n3ncn(Cc4c(F)cccc4F)c3=O)cc2)ccn1 [Example 268, (S)-4-(2,6-difluorobenzyl)-2-(4-((2-(2-methylpyrrolidin-1-yl)pyridin-4-yl)oxy)phenyl)-2,4-dihydro-3H-1,2,4-triazol-3-one] | < 100 | – | –
